Results as given in US20070249637A1, “Inhibitors Of Hepatitis C Virus Protease, And Compositions And Treatments Using The Same” (priority 2004, published 2007).
Where “and” joins values, the source holds several entries; their conditions need not be identical. Identical values can stand only once. Like-named read-outs stand apart in the source and are kept apart here.

How the values were obtained:
[1] = rcm bond, 15-membered ring, DCM, 40.0 °C
in vitro = format: cell-based; settings: human; 50% reduction of firefly luciferase expression, 3 days incubation; read-out: Replicon CC50
Procedure: (§1) Cell-based antiviral activity was evaluated in the previously described HCV dual reporter subgenomic replicon system (the '075 application). With this system, the effects of a compound on both HCV replication and cell viability can be simultaneously determined by measuring the intracellular levels of two separate reporter proteins. The dicistronic selectable replicon contains the Renilla luciferase gene such that Renilla luciferase activity within stably-transfected cells serves as a marker of HCV replication. The firefly luciferase gene is stably integrated into and expressed by the Huh-7 host cells. Since firefly luciferase activity is dependent upon cellular transcription and translation, firefly luciferase activity serves as an indicator of cell viability.
(§2) The dual reporter selectable replicon cell line (B6b) was maintained in DMEM supplemented with 10% FBS, L-glutamine, non-essential amino acids, penicillin, streptomycin, and selection agents (200 ug/ml G418 and 6 ug/ml blastocidin). On the first day of the experiment, cells were trypsinized, washed, and diluted in medium lacking the selection agents. Cells were transferred to 96-well, black-walled, clear bottom plates at a density of 2×10^4 cells in 150 ul of medium per well. Cells were allowed to settle for 60 to 90 minutes while compounds were being prepared. Each compound was initially diluted to a 4× working stock (2.56% DMSO in tissue culture medium) that was then serially diluted nine times in half log increments in medium with 2.56% DMSO. Fifty microliters of each dilution were then added in triplicate to the plated cells in order to obtain final IX compound concentrations with 0.64% DMSO. Typical testing concentrations ranged from 320 uM to 10 nM. Control wells containing 0.64% DMSO without compound were also included on each plate.
(§3) After 3 days of incubation under humidity at 37° C. with 5% CO2, plates were microscopically examined for compound precipitation and cell death. Tissue culture medium was then aspirated and cells were lysed with 20 ul of 1× Passive Lysis Buffer (Promega, Madison, Wis.). Reporter activity was measured using a MicroBeta Jet 1450 (Perkin Elmer, Boston, Mass.) following sequential 50 ul additions of firefly and Renilla luciferase substrates as described in the manufacturers protocol (Promega). Luciferase activities were expressed as a percentage of the signals observed in the compound-free control wells. The amount of compound required to reduce Renilla luciferase expression by 50% is defined as the 50% effective concentration, or EC50. The amount of compound that reduces firefly luciferase expression by 50% is defined as the 50% cytotoxic concentration, or CC50. A therapeutic index (TI) is calculated by dividing the CC50 by the EC50.

[2] = tested on: HCV dual reporter subgenomic replicon (B6b cell line); experiment: HCV dual reporter subgenomic replicon assay, Renilla luciferase (antiviral activity); format: cell-based; settings: Hepatitis C virus, 72 h; 50% reduction of Renilla luciferase expression, 3 days incubation
Procedure: The compounds described herein were tested for antiviral activity utilizing a dual-reporter replicon assay as described in U.S. patent application Ser. No. 10/818,075 (the '075 application), filed Apr. 5, 2004. The disclosure of the '075 application is incorporated herein.
as §1, §2, §3

[3] = molecular target: T1, full-length NS3-NS4A enzyme (Hepatitis C virus genotype 1a, UniProt P27958); experiment: HCV protease assay (continuous FRET, full-length enzyme); format: biochemical; settings: 3 nM full-length NS3-NS4A, 3 uM depsipeptide FRET substrate S1; competitive inhibition fit
T1 construct: 3 nM full-length NS3-NS4A enzyme
Procedure: HCV protease activity and compound inhibition was monitored using a continuous, fluorescence resonance energy transfer (FRET) assay. Test compounds at various concentrations were added to assay buffer (50 mM MOPS pH 7.5, 50 mM NaCl, 20% glycerol, 0.025% Triton-X 100, 1 mM tris(2-carboxyethyl)phosphine) containing 3 uM depsipeptide FRET substrate S1 (Anaspec) (see Taliani et al. Analytical Biochemistry, 240, 60-67 (1996)) in a white, non-binding 96-well plate (Corning). The reaction was started by the addition of 3 nM full-length NS3-NS4A enzyme. The increase in fluorescence intensity following peptide cleavage was monitored using a Safire fluorescence plate reader (Tecan). The excitation and emission wavelengths were 340 nm and 500 nm, respectively. Inhibition constants (KI) were calculated by non-linear regression analysis using an equation derived for competitive inhibition.

T1 sequence (P27958 1027-1657): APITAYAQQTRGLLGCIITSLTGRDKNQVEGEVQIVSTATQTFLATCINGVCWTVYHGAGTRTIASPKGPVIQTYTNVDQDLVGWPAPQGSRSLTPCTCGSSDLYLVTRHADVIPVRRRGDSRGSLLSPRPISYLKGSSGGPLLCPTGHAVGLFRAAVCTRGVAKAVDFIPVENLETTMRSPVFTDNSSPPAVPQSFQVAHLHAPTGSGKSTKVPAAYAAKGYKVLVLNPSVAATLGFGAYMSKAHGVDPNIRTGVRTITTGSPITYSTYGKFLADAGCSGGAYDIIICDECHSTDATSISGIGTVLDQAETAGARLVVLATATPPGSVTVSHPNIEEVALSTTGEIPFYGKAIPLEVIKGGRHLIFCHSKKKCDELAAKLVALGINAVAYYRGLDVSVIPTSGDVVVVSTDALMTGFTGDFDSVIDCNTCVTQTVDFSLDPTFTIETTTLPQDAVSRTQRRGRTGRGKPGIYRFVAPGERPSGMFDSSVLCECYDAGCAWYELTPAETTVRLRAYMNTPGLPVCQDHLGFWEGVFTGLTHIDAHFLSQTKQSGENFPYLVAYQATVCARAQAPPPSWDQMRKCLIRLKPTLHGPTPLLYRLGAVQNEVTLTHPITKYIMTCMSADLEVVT
T1 sequence (P27958 1658-1711): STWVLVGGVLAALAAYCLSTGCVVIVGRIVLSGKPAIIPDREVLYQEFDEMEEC

Row | Structure (SMILES) | ring closure, isolated yield ([1]; from C=CCCCCCC(NC(=O)OC(C)(C)C)C(=O)N1C[C@H](Oc2cc(-c3ccccn3)nc3ccsc23)C[C@H]1C(=O)N[C@]1(C(=O)OC)C[C@H]1C=C, Grubbs II (0.25 equiv), 2.0 mM, 4.0 h) | ring closure, isolated yield ([1]; from C=CCCCCC[C@H](NC(=O)OC(C)(C)C)C(=O)N1C[C@H](Oc2nc(-c3ccccn3)nc3sccc23)C[C@H]1C(=O)N[C@]1(C(=O)OC)C[C@H]1C=C, Grubbs II (0.15 equiv), 5.0 mM, 2.0 h) | CC50 at 3 days (in vitro) | EC50 [2] | Ki [3]
1 | COC(=O)[C@@]12C[C@H]1/C=C\CCCCCC(NC(=O)OC(C)(C)C)C(=O)N1C[C@H](Oc3cc(-c4ccccn4)nc4ccsc34)C[C@H]1C(=O)N2 (some centres unmarked) | 24% |  |  |  | 
2 | COC(=O)[C@@]12C[C@H]1/C=C\CCCCC[C@H](NC(=O)OC(C)(C)C)C(=O)N1C[C@H](Oc3nc(-c4ccccn4)nc4sccc34)C[C@H]1C(=O)N2 |  | 38% |  |  | 
3 | CC(C)(C)OC(=O)N[C@H]1CCCCC/C=C\[C@@H]2C[C@@]2(C(=O)O)NC(=O)[C@@H]2C[C@@H](Oc3nc(-c4ccccn4)nc4sccc34)CN2C1=O [Example 29, (2R,6S,12Z,13aS,14aR,16aS)-6-[(tert-butoxycarbonyl)amino]-5,16-dioxo-2-[(2-pyridin-2-ylthieno[2,3-d]pyrimidin-4-yl)oxy]-1,2,3,6,7,8,9,10,11,13a,14,15,16,16a-tetradecahydrocyclopropa[e]pyrrolo[1,2-a][1,4]diazacyclopentadecine-14a(5H)-carboxylic acid] |  |  | 13000 nM | 420 nM | 42 nM
4 | CC(C)(C)OC(=O)N[C@H]1CCCCC/C=C\[C@@H]2C[C@@]2(C(=O)O)NC(=O)[C@@H]2C[C@@H](Oc3cc(-c4ccccn4)nc4ccsc34)CN2C1=O [Example 14, (2R,6S,12Z,13aS,14aR,16aS)-6-[(Tert-butoxycarbonyl)amino]-5,16-dioxo-2-[(5-pyridin-2-ylthieno[3,2-b]pyridin-7-yl)oxy]-1,2,3,6,7,8,9,10,11,13a,14,15,16,16a-tetradecahydrocyclopropa[e]pyrrolo[1,2-a][1,4]diazacyclopentadecine-14a(5H)-carboxylic acid] |  |  | 92000 nM | 610 nM | 8.9 nM
5 | CC(C)(C)OC(=O)N[C@H]1CCCCC/C=C\[C@@H]2C[C@@]2(C(=O)O)NC(=O)[C@@H]2C[C@@H](Oc3nc(-c4ccccn4)nc4ccsc34)CN2C1=O [Example 44, (2R,6S,12Z,13aS,14aR,16aS)-6-[(Tert-butoxycarbonyl)amino]-5,16-dioxo-2-[(2-pyridin-2-ylthieno[3,2-d]pyrimidin-4-yl)oxy]-1,2,3,6,7,8,9,10,11,13a,14,15,16,16a-tetradecahydrocyclopropa[e]pyrrolo[1,2-a][1,4]diazacyclopentadecine-14a(5H)-carboxylic acid] |  |  | 159000 nM | 150 nM | 20 nM
6 | Cn1ccnc1-c1cc2nccc(O[C@@H]3C[C@H]4C(=O)N[C@]5(C(=O)O)C[C@H]5/C=C\CCCCC[C@H](NC(=O)OC5CCCC5)C(=O)N4C3)c2s1 [Example 89, (2R,6S,12Z,13aS,14aR,16aS)-6-{[(Cyclopentyloxy)carbonyl]amino}-2-{[2-(1-methyl-1H-imidazol-2-yl)thieno[3,2-b]pyridin-7-yl]oxy}-5,16-dioxo-1,2,3,6,7,8,9,10,11,13a,14,15,16,16a-tetradecahydrocyclopropa[e]pyrrolo[1,2-a][1,4]diazacyclopentadecine-14a(5H)-carboxylic acid] |  |  | > 320000 nM | 500 nM | 14 nM and 13 nM
7 | CC(C)Nc1cccc(-c2nc(O[C@@H]3C[C@H]4C(=O)N[C@]5(C(=O)O)C[C@H]5/C=C\CCCCC[C@H](NC(=O)OC(C)(C)C)C(=O)N4C3)c3sccc3n2)n1 [Example 79, (2R,6S,12Z,13aS,14aR,16aS)-6-[(Tert-butoxycarbonyl)amino]-2-({2-[6-(isopropylamino)pyridin-2-yl]thieno[3,2-d]pyrimidin-4-yl}oxy)-5,16-dioxo-1,2,3,6,7,8,9,10,11,13a,14,15,16,16a-tetradecahydrocyclopropa[e]pyrrolo[1,2-a][1,4]diazacyclopentadecine-14a(5H)-carboxylic acid] |  |  | 212000 nM | 180 nM | 11.3 nM
8 | O=C(N[C@H]1CCCCC/C=C\[C@@H]2C[C@@]2(C(=O)O)NC(=O)[C@@H]2C[C@@H](Oc3nc(-c4ccccn4)nc4ccsc34)CN2C1=O)OC1CCC1 [Example 43, (2R,6S,12Z,13aS,14aR,16aS)-6-{[(cyclobutyloxy)carbonyl]amino}-5,16-dioxo-2-[(2-pyridin-2-ylthieno[3,2-d]pyrimidin-4-yl)oxy]-1,2,3,6,7,8,9,10,11,13a,14,15,16,16a-tetradecahydrocyclopropa[e]pyrrolo[1,2-a][1,4]diazacyclopentadecine-14a(5H)-carboxylic acid] |  |  | > 320000 nM | 190 nM | 20 nM
9 | Cc1cc(-c2nc(O[C@@H]3C[C@H]4C(=O)N[C@]5(C(=O)O)C[C@H]5/C=C\CCCCC[C@H](NC(=O)OC5CCCC5)C(=O)N4C3)c3sccc3n2)n(C)n1 [Example 58, (2R,6S,12Z,13aS,14aR,16aS)-6-{[(Cyclopentyloxy)carbonyl]amino}-2-{[2-(1,3-dimethyl-1H-pyrazol-5-yl)thieno[3,2-d]pyrimidin-4-yl]oxy}-5,16-dioxo-1,2,3,6,7,8,9,10,11,13a,14,15,16,16a-tetradecahydrocyclopropa[e]pyrrolo[1,2-a][1,4]diazacyclopentadecine-14a(5H)-carboxylic acid] |  |  | 216000 nM | 62 nM | 2.3 nM
10 | O=C(N[C@H]1CCCCC/C=C\[C@@H]2C[C@@]2(C(=O)O)NC(=O)[C@@H]2C[C@@H](Oc3nc(-c4ccccn4)nc4sccc34)CN2C1=O)OC1CCC1 [Example 28, (2R,6S,12Z,13aS,14aR,16aS)-6-{[(cyclobutyloxy)carbonyl]amino}-5,16-dioxo-2-[(2-pyridin-2-ylthieno[2,3-d]pyrimidin-4-yl)oxy]-1,2,3,6,7,8,9,10,11,13a,14,15,16,16a-tetradecahydrocyclopropa[e]pyrrolo[1,2-a][1,4]diazacyclopentadecine-14a(5H)-carboxylic acid] |  |  | 59000 nM | 420 nM | 21 nM
11 | Cn1ccnc1-c1cc2nccc(O[C@@H]3C[C@H]4C(=O)N[C@]5(C(=O)O)C[C@H]5/C=C\CCCCC[C@H](NC(=O)OC(C)(C)C)C(=O)N4C3)c2s1 [Example 86, (2R,6S,12Z,13aS,14aR,16aS)-6-[(tert-butoxycarbonyl)amino]-2-{[2-(1-methyl-1H-imidazol-2-yl)thieno[3,2-b]pyridin-7-yl]oxy}-5,16-dioxo-1,2,3,6,7,8,9,10,11,13a,14,15,16,16a-tetradecahydrocyclopropa[e]pyrrolo[1,2-a][1,4]diazacyclopentadecine-14a(5H)-carboxylic acid] |  |  | > 320000 nM | 15000 nM | 69 nM
12 | O=C(N[C@H]1CCCCC/C=C\[C@@H]2C[C@@]2(C(=O)O)NC(=O)[C@@H]2C[C@@H](Oc3nc(-c4ccccn4)nc4sccc34)CN2C1=O)OC1CCCC1 [Example 26, (2R,6S,12Z,13aS,14aR,16aS)-6-{[(Cyclopentyloxy)carbonyl]amino}-5,16-dioxo-2-[(2-pyridin-2-ylthieno[2,3-d]pyrimidin-4-yl)oxy]-1,2,3,6,7,8,9,10,11,13a,14,15,16,16a-tetradecahydrocyclopropa[e]pyrrolo[1,2-a][1,4]diazacyclopentadecine-14a(5H)-carboxylic acid] |  |  | 117000 nM | 100 nM | 8.5 nM
